Results reported in patent US12577234B2, “Antagonists of the muscarinic acetylcholine receptor M4” (Vanderbilt University, priority 2017, dated 2026).
pIC50: −log10 of the molar value.

Molecular target: T1, human mAChR M4 (Homo sapiens, UniProt P08173)
T1 construct: expressed in transfected cells; host or cells: CHO-K1 (ATCC), stably co-expressing chimeric G protein Gqi5
T1 sequence (P08173 1-479): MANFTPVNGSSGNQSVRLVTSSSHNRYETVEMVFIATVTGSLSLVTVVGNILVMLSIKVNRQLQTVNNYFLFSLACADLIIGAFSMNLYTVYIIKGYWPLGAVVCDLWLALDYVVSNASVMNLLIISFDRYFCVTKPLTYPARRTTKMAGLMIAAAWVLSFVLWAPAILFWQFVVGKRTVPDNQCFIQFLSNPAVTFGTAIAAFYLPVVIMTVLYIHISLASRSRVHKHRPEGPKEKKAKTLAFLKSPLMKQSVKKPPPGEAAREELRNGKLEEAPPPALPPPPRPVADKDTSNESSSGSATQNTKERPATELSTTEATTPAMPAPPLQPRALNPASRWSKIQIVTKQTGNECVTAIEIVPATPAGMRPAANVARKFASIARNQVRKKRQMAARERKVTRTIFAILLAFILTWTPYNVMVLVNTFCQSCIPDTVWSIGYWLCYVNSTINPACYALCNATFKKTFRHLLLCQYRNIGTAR
Assay: mAChR M4 cell-based functional assay (calcium mobilization, EC80 acetylcholine), human M4
Details: for pIC50: M4/Gqi5/CHO-K1 cells, decrease of EC80 acetylcholine response; for Emin: human M4, % ACh maximum at 30 μM
In short: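 CHO-K1 cells stably expressing human M4 with chimeric Gqi5; intracellular calcium rise read on FDSS as fluorescence static ratio at 1 Hz. Compounds in 10-point 1:3 dilution series; IC50 taken as concentration-dependent decrease of the EC80 acetylcholine response, four-parameter logistic fit.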

| Compound | pIC50 (Table 9) | Emin (Table 9) [%] | Human M4 Emin (Table 10) [%] | pIC50 (Table 10) | IC50 (Table 9, μM) [µM] |
| --- | --- | --- | --- | --- | --- |
| Cc1nn(C)cc1-c1ccc(N[C@@H]2C[C@@H]3CN(CC4CCCCC4)C[C@@H]3C2)c(F)c1F [Compound 43, (3aR,5r,6aS)-2-(cyclohexylmethyl)-N-[4-(1,3-dimethylpyrazol-4-yl)-2,3-difluoro-phenyl]-3,3a,4,5,6,6a-hexahydro-1H-cyclopenta[c]pyrrol-5-amine] | 5.92 | 5.25 |  |  |  |
| COc1ccccc1CN1C[C@H]2C[C@H](Nc3ccc(-c4cc(F)ccc4Cl)nn3)C[C@H]2C1 [Compound 174, (3aR,5s,6aS)-N-[6-(2-chloro-5-fluoro-phenyl)pyridazin-3-yl]-2-[(2-methoxyphenyl)methyl]-3,3a,4,5,6,6a-hexahydro-1H-cyclopenta[c]pyrrol-5-amine] |  |  | 4 | 6.68 |  |
| Cc1cccnc1CN1C[C@H]2C[C@@H](Oc3ccc(-c4cn(C)nc4C)nn3)C[C@H]2C1 [Compound 52, (3aR,5r,6aS)-5-[6-(1,3-dimethylpyrazol-4-yl)pyridazin-3-yl]oxy-2-[(3-methyl-2-pyridyl)methyl]-3,3a,4,5,6,6a-hexahydro-1H-cyclopenta[c]pyrrole] |  | 26.4 |  |  | > 10 |
| Fc1ccc(Cl)c(-c2ccc(O[C@@H]3C[C@@H]4CN(CC5CCCCC5)C[C@@H]4C3)nn2)c1 [Compound 56, (3aR,5r,6aS)-5-[6-(2-chloro-5-fluoro-phenyl)pyridazin-3-yl]oxy-2-(cyclohexylmethyl)-3,3a,4,5,6,6a-hexahydro-1H-cyclopenta[c]pyrrole] | 6.81 | 3.63 |  |  |  |
| COc1ccc(F)cc1-c1ccc(N[C@H]2C[C@@H]3CN(CC4CCOCC4)C[C@@H]3C2)nn1 [Compound 212, (3aR,5s,6aS)-N-[6-(5-fluoro-2-methoxy-phenyl)pyridazin-3-yl]-2-(tetrahydropyran-4-ylmethyl)-3,3a,4,5,6,6a-hexahydro-1H-cyclopenta[c]pyrrol-5-amine] |  |  | 5 | 9.31 |  |
| CC(C)(C)CCN1C[C@H]2C[C@H](Nc3ccc(-c4cc(F)ccc4Cl)nn3)C[C@H]2C1 [Compound 28, (3aR,5s,6aS)-N-[6-(2-chloro-5-fluoro-phenyl)pyridazin-3-yl]-2-(3,3-dimethylbutyl)-3,3a,4,5,6,6a-hexahydro-1H-cyclopenta[c]pyrrol-5-amine] | 8.00 | 3.53 |  |  |  |
| Fc1ccc(Cl)c(-c2ccc(N[C@H]3C[C@@H]4CN(Cc5ccccn5)C[C@@H]4C3)nn2)c1 [Compound 160, (3aR,5s,6aS)-N-[6-(2-chloro-5-fluoro-phenyl)pyridazin-3-yl]-2-(2-pyridylmethyl)-3,3a,4,5,6,6a-hexahydro-1H-cyclopenta[c]pyrrol-5-amine] |  |  | 3 | 8.39 |  |
| FC1(F)CCN(c2ccc(N[C@H]3C[C@@H]4CN(CC5CCOCC5)C[C@@H]4C3)nn2)C1 [Compound 189, (3aR,5s,6aS)-N-[6-(3,3-difluoropyrrolidin-1-yl)pyridazin-3-yl]-2-(tetrahydropyran-4-ylmethyl)-3,3a,4,5,6,6a-hexahydro-1H-cyclopenta[c]pyrrol-5-amine] |  |  | 8 | 8.68 |  |
| Cc1nn(C)cc1-c1ccc(N[C@@H]2C[C@@H]3CN(CC4CCCCCC4)C[C@@H]3C2)c(F)c1F [Compound 44, (3aR,5r,6aS)-2-(cycloheptylmethyl)-N-[4-(1,3-dimethylpyrazol-4-yl)-2,3-difluoro-phenyl]-3,3a,4,5,6,6a-hexahydro-1H-cyclopenta[c]pyrrol-5-amine] | 5.67 | 5.01 |  |  |  |
| CC(=O)Nc1ccc(-c2ccc(O[C@H]3C[C@@H]4CN(CC5CCCCC5)C[C@@H]4C3)nn2)cc1 [Compound 130, N-[4-[6-[[(3aR,5s,6aS)-2-(cyclohexylmethyl)-3,3a,4,5,6,6a-hexahydro-1H-cyclopenta[c]pyrrol-5-yl]oxy]pyridazin-3-yl]phenyl]acetamide] |  |  | 3 | 7.23 |  |
| Cc1cccnc1CN1C[C@H]2C[C@H](Nc3ccc(-c4cc(F)ccc4Cl)nn3)C[C@H]2C1 [Compound 35, (3aR,5s,6aS)-N-[6-(2-chloro-5-fluoro-phenyl)pyridazin-3-yl]-2-[(3-methyl-2-pyridyl)methyl]-3,3a,4,5,6,6a-hexahydro-1H-cyclopenta[c]pyrrol-5-amine] | 8.47 | 6.1 |  |  |  |
| COc1ccc(-c2ccc(N[C@H]3C[C@@H]4CN(CC5CCOCC5)C[C@@H]4C3)nn2)cc1 [Compound 201, (3aR,5s,6aS)-N-[6-(4-methoxyphenyl)pyridazin-3-yl]-2-(tetrahydropyran-4-ylmethyl)-3,3a,4,5,6,6a-hexahydro-1H-cyclopenta[c]pyrrol-5-amine] |  |  | 7 | 8.45 |  |
| CC1(CN2C[C@H]3C[C@H](Nc4ccc(-c5cc(F)ccc5Cl)nn4)C[C@H]3C2)COC1 [Compound 171, (3aR,5s,6aS)-N-[6-(2-chloro-5-fluoro-phenyl)pyridazin-3-yl]-2-[(3-methyloxetan-3-yl)methyl]-3,3a,4,5,6,6a-hexahydro-1H-cyclopenta[c]pyrrol-5-amine] |  |  | 4 | 7.07 |  |

Now from value to compound:

| pIC50 (Table 9) | Emin (Table 9) [%] | Human M4 Emin (Table 10) [%] | pIC50 (Table 10) | IC50 (Table 9, μM) [µM] | Compound |
| --- | --- | --- | --- | --- | --- |
| 6.71 | 4.92 |  |  |  | Cc1cnn(C)c1-c1ccc(N[C@H]2C[C@@H]3CN(Cc4ccccc4F)C[C@@H]3C2)nn1 [Compound 25, (3aR,5s,6aS)-N-[6-(2,4-dimethylpyrazol-3-yl)pyridazin-3-yl]-2-[(2-fluorophenyl)methyl]-3,3a,4,5,6,6a-hexahydro-1H-cyclopenta[c]pyrrol-5-amine] |
| 7.02 | 3.08 |  |  |  | Cc1nn(C)cc1-c1ccc(O[C@@H]2C[C@@H]3CN(CC4CC5C=CC4C5)C[C@@H]3C2)nn1 (stereo partly drawn) [Compound 47, (3aR,5r,6aS)-2-(5-bicyclo[2.2.1]hept-2-enylmethyl)-5-[6-(1,3-dimethylpyrazol-4-yl)pyridazin-3-yl]oxy-3,3a,4,5,6,6a-hexahydro-1H-cyclopenta[c]pyrrole] |
|  |  | 4 | 6.78 |  | Cc1cnn(C)c1-c1ccc(OC[C@H]2C[C@@H]3CN(CCC(C)(C)C)C[C@@H]3C2)nn1 [Compound 146, (3aR,5s,6aS)-2-(3,3-dimethylbutyl)-5-[[6-(2,4-dimethylpyrazol-3-yl)pyridazin-3-yl]oxymethyl]-3,3a,4,5,6,6a-hexahydro-1H-cyclopenta[c]pyrrole] |
|  |  | 4 | 7.51 |  | Cc1nn(C)cc1-c1cnc(N[C@H]2C[C@@H]3CN(CC4CC5C=CC4C5)C[C@@H]3C2)cn1 (stereo partly drawn) [Compound 154, (3aR,5s,6aS)-2-(5-bicyclo[2.2.1]hept-2-enylmethyl)-N-[5-(1,3-dimethylpyrazol-4-yl)pyrazin-2-yl]-3,3a,4,5,6,6a-hexahydro-1H-cyclopenta[c]pyrrol-5-amine] |
| 7.09 | 4.08 |  |  |  | Cc1cnn(C)c1-c1ccc(N[C@H]2C[C@@H]3CN(CC4CCCOC4)C[C@@H]3C2)nn1 (stereo partly drawn) [Compound 22, (3aR,5s,6aS)-N-[6-(2,4-dimethylpyrazol-3-yl)pyridazin-3-yl]-2-(tetrahydropyran-3-ylmethyl)-3,3a,4,5,6,6a-hexahydro-1H-cyclopenta[c]pyrrol-5-amine] |
|  |  | 4 | 6.62 |  | Cc1cnn(C)c1-c1ccc(NC(=O)[C@H]2C[C@@H]3CN(CCC(C)(C)C)C[C@@H]3C2)nn1 [Compound 145, (3aR,5s,6aS)-2-(3,3-dimethylbutyl)-N-[6-(2,4-dimethylpyrazol-3-yl)pyridazin-3-yl]-3,3a,4,5,6,6a-hexahydro-1H-cyclopenta[c]pyrrole-5-carboxamide] |
|  |  | 3 | 7.73 |  | Fc1ccc(Cl)c(-c2ccc(N[C@H]3C[C@@H]4CN(CC5CC5)C[C@@H]4C3)nn2)c1 [Compound 169, (3aR,5s,6aS)-N-[6-(2-chloro-5-fluoro-phenyl)pyridazin-3-yl]-2-(cyclopropylmethyl)-3,3a,4,5,6,6a-hexahydro-1H-cyclopenta[c]pyrrol-5-amine] |
|  |  | 25 | 8.38 |  | Cn1cc(-c2ccc(N[C@H]3C[C@@H]4CN(CC5CCOCC5)C[C@@H]4C3)nn2)cn1 [Compound 208, (3aR,5s,6aS)-N-[6-(1-methylpyrazol-4-yl)pyridazin-3-yl]-2-(tetrahydropyran-4-ylmethyl)-3,3a,4,5,6,6a-hexahydro-1H-cyclopenta[c]pyrrol-5-amine] |
| 6.39 | 3.86 |  |  |  | Cc1cnn(C)c1-c1ccc(NC(=O)C2CC3CN(CC4CC5C=CC4C5)CC3C2)nn1 (stereo not shown) [Compound 77, 2-(5-bicyclo[2.2.1]hept-2-enylmethyl)-N-[6-(2,4-dimethylpyrazol-3-yl)pyridazin-3-yl]-3,3a,4,5,6,6a-hexahydro-1H-cyclopenta[c]pyrrole-5-carboxamide] |
| 8.21 | 2.16 |  |  |  | Cc1cnn(C)c1-c1ccc(NCCC2C[C@@H]3CN(CC4CC5C=CC4C5)C[C@@H]3C2)nn1 (stereo partly drawn) [Compound 123, N-[2-[(3aR,6aS)-2-(5-bicyclo[2.2.1]hept-2-enylmethyl)-3,3a,4,5,6,6a-hexahydro-1H-cyclopenta[c]pyrrol-5-yl]ethyl]-6-(2,4-dimethylpyrazol-3-yl)pyridazin-3-amine] |
